Consider 81 molecules from the METLIN SMRT retention time set (Domingo-Almenara et al. 2019).

The data set in a line: gradient 5% acetonitrile 3 min, to 50% in 2 min, to 85% in 15 min, held 3 min, 100 µL/min. The settings on record: column: Zorbax Extend-C18 2.1 x 50 mm; eluents: water / acetonitrile, 0.1% formic acid. In a few lines: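 A Zorbax Extend-C18 column (2.1 × 50 mm, 1.8 μm) run at 100 μL/min with water and acetonitrile, both containing 0.1% formic acid, separated mixtures of ~100 pure standards. The HPLC was coupled to a quadrupole time-of-flight mass spectrometer operated in positive and negative ionization mode, with dead and dwell volumes of 40 μL and 900 μL. Each retention time was taken from a computationally picked adduct peak that was then manually inspected.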
Take `Cc1nnc(-c2cc(S(=O)(=O)Nc3ccc(S(N)(=O)=O)cc3)c(C)n2C)o1`: the RP-LC retention time amounted to 649 s. Then `Cc1ccc(NC(=O)Cn2nc(N3CCOCC3)c3ccccc3c2=O)c(C)c1`, with 809 s; and `COc1ccc(S(=O)(=O)N2CCCC(C(=O)NC3CCCC3)C2)cc1C` (stereo unspecified), with 901 s; and `CCOC(=O)c1c(S(=O)(=O)N2CCC(C(=O)NCc3cccc(C)c3)CC2)c(C)n(CC)c1C`, with 975 s. For `O=C(O)c1nnn(-c2ccc(Cl)cc2)c1C(F)(F)F` the value was 828 s; for `CC(C)CCN1CC(=O)N(Cc2ccc(N3CCOCC3)cc2)C(c2cccs2)C1=O` (stereo unspecified), 836 s.

On to `COCCCNC(=O)N1CCCN(C2=NS(=O)(=O)C(c3ccc(F)cc3)=C2C)CC1`, for which the RP-LC retention time was determined as 709 s. Then `Cc1cccc(CNC(=O)C2(C)Oc3cccnc3NC2=O)c1` (stereo unspecified), with 704 s; and `CCCSCCCNC(=O)Cn1nc(-n2cccc2)c2c(C)cc(C)nc21`, with 1050 s; and `CCc1nnc(NC(=O)C2CC(=O)N(CCc3c[nH]c4ccc(Cl)cc34)C2)s1` (stereo unspecified), with 715 s. In the case of `Cc1ccc(-c2nnc(-c3nn(C)c4c3CN(S(=O)(=O)c3cccc(F)c3)CC4)o2)cc1`, the RP-LC retention time was determined as 999 s. Then `COCC(=O)N1CCCCC1c1nncn1Cc1ccccc1` (stereo unspecified), with 612 s; and `Cc1cccc(NC(=O)C2CCN(S(=O)(=O)c3ccc4c(c3)NC(=O)C(C)O4)CC2)c1C` (stereo unspecified), with 818 s; and `CCN(C(=O)c1ccco1)c1nc(-c2ccccc2)cs1`, with 1180 s. For `Cc1noc(-c2ccc(-n3cnc(C(=O)NCC4CC4)c3)nc2)n1` the value was 727 s; for `COc1c(C=O)c(O)cc2c1C(=O)c1ccccc1C2=O`, 967 s. For `O=S(=O)(c1ccc2nncn2c1)N(Cc1cc(F)cc(F)c1)c1cc(F)cc(F)c1` the value was 910 s; for `CCc1noc(NC(C)=O)c1-c1ccc(C)c(S(=O)(=O)Nc2cccc(F)c2)c1`, 822 s; for `CCC(=O)Nc1ccc(OCc2cc(C(=O)NC3CCCC3)no2)cc1`, 740 s. Molecule `Cn1cnnc1-c1nn(C)c2c1CN(C(=O)c1n[nH]c3c1CCCCCC3)CC2` came in with an RP-LC retention time of 650 s.

In turn, `COCCN1C(=O)CCc2cc(NS(=O)(=O)c3ccc(OC)c(OC)c3)ccc21` returned an RP-LC retention time of 569 s.

For the molecule `CCC(C)N(CCNC(=O)Cn1c(=O)oc2ccccc21)Cc1cccs1` (stereo unspecified), the RP-LC retention time worked out at 652 s. In the case of `Cc1nn(C)c(C)c1S(=O)(=O)N1CCC(Cc2nc(-c3cccnc3)n[nH]2)C1` (stereo unspecified), the RP-LC retention time was found to be 598 s. For `Cc1cc(NS(=O)(=O)c2ccc(-c3nnc(C4CCC4)o3)o2)ccc1F` the value was 963 s; for `CC(C)c1ccc(-c2noc(N3CCC(C(=O)N4CCOCC4)CC3)n2)cc1`, 955 s.

As to `O=C(Nc1ccc(Br)cc1F)N1CCC(n2cnc3cccnc32)CC1`, the RP-LC retention time is 690 s.

Molecule `COc1ccc(-c2noc(-c3nc(-c4ccc(N(C)C)cc4)no3)n2)cc1OC` came in with an RP-LC retention time of 1230 s. For `NC(N)=N/N=C(\c1ccc(Cl)cc1)C1CC1` the value was 665 s; for `Cc1ccc(-n2nnnc2CNC(=O)Nc2ccc(Cl)c(Cl)c2)cc1C`, 944 s; for `O=C(NCCCn1cccn1)c1c(OCC2CC2)cc(=O)n2c1CCCCC2`, 634 s.

`CCC(C)n1c(=O)c2ccccc2n(Cc2nc(-c3ccc(C)cc3)no2)c1=O` (stereo unspecified): the RP-LC retention time was found to be 1240 s.

Consider `O=C1NC(C(=O)NCC2CC2)Cn2cccc21` (stereo unspecified), for which the RP-LC retention time worked out at 602 s. For `CC(C)(C)c1csc(-c2csc(S(=O)(=O)NCc3ccc4c(c3)OCO4)c2)n1` the value was 1170 s. For `COc1ccccc1-n1ccnc(NC(=O)Nc2ccc(F)cc2)c1=O` the value was 896 s; for `O=C(NCCN1CCOCC1)C1CCN(c2nc3cccnc3s2)CC1`, 570 s. Then `COc1ccccc1NC(=O)Cn1cnc2onc(C)c2c1=O`, with 748 s; and `Cc1ccc(NS(=O)(=O)c2cc3n(c2)CCCNC3=O)cc1F`, with 669 s; and `CCCNC(=O)C1CCN(S(=O)(=O)c2cc(C(=O)N3CCC(C)CC3)n(C)c2)CC1`, with 738 s.

With `O=C(Cn1cc(C(=O)c2ccccc2)c(=O)c2cc(F)ccc21)Nc1ccc2c(c1)OCO2`, the RP-LC retention time is 836 s. Then `Cc1ccc(C(=O)Nc2cc(-c3ccsc3)no2)c(C)c1`, with 1030 s; and `Cc1cccc(-c2noc(C3CCCN3S(=O)(=O)c3ccc(C)c(C)c3)n2)c1` (stereo unspecified), with 1210 s; and `CCOc1ccccc1-c1nc(Cc2noc(-c3ccncc3)n2)c(C)o1`, with 918 s.

`CCc1nn2c(CNS(=O)(=O)Cc3ccccc3F)c(-c3ccccc3)nc2s1`: the RP-LC retention time was 948 s.

As to `CC(C)n1cc(S(=O)(=O)Nc2ccc(Cl)cc2F)c2cccnc21`, the RP-LC retention time is 950 s. Regarding `O=C1NCCOCCCN(C(=O)Nc2ccccc2)[C@H]2CCC[C@@H]12`, the RP-LC retention time was 741 s.

`COC(=O)c1cc(S(=O)(=O)N2CCCC2C(=O)NC2CCCCCC2)cn1C` (stereo unspecified): the RP-LC retention time was 881 s. In the case of `CCOC(=O)C1=C(CN2CCN(C)CC2)NC(=O)NC1c1ccc(OC(C)C)cc1` (stereo unspecified), the RP-LC retention time is 636 s.

The molecule `CCc1noc(-c2cccn2Cc2ccc(OC)c(F)c2)n1` had an RP-LC retention time of 1100 s. Then `CC1=C(c2ccc(C(C)C)cc2)S(=O)(=O)N=C1N1CCC(C(=O)NCC2CCCO2)CC1` (stereo unspecified), with 820 s; and `CNC(=O)c1cc(-c2ccc(F)cc2)n[nH]1`, with 659 s; and `O=C(Cn1c2c(c3ccccc31)CCC2)NCCn1ncccc1=O`, with 710 s. For `CN(C)S(=O)(=O)c1ccc(-c2nnc(C(=O)NCc3ccccn3)o2)cc1` the value was 649 s. For `CCOc1ccccc1CNC(=O)c1nnc(-c2ccc(S(=O)(=O)N(C)C)cc2)o1` the value was 945 s; for `CC(C)CN1CCn2cc(S(=O)(=O)NCc3ccccc3Cl)cc2C1=O`, 818 s; for `COc1ccccc1NC(=O)N1CCN(C2=CC3=NC(C)CN3C=N2)CC1` (stereo unspecified), 603 s. `Cc1ccc2nc(C(=O)NCCN(C)C3CCCCC3)cn2c1` had an RP-LC retention time of 564 s. Take `CCCNc1cc(N2CCCC(CCC(=O)Nc3ccccc3)C2)ncn1` (stereo unspecified): the RP-LC retention time stood at 703 s. Then `O=C(COc1ccc(Br)cc1)Nc1cncc(-c2nc3ccccc3o2)c1`, with 1040 s; and `O=C(N[C@H]1C[C@@H]2C[C@H]1N(C(=O)NCCc1ccccc1)C2)c1ccccc1`, with 740 s. For `O=C(CSc1ccc(F)cc1)Nc1nnc(COc2ccccc2)o1` the value was 790 s; for `CCN(CC)C(=O)c1cc2c(s1)CCC(C(=O)Nc1ccc3c(c1)OCCO3)C2` (stereo unspecified), 775 s. Then `O=C(CN1C(=O)COc2ccccc2C1=O)c1cccc([N+](=O)[O-])c1`, with 863 s. The molecule `Cc1cc(=O)n(CC(=O)Nc2ccccc2C)c(N2CCOCC2)n1` showed an RP-LC retention time of 657 s. For `c1ccc(-c2ccc(CNCc3ccc4c(c3)OCO4)o2)cc1` the value was 698 s. On to `COc1ccc(NC(=O)N2CCc3nc(-c4ccccc4)ncc3C2)cc1OC`, for which the RP-LC retention time worked out at 804 s.

`CCC(=O)N1CCc2cc(N3CC(C(=O)Nc4ccc(C(C)=O)cc4)CC3=O)ccc21` (stereo unspecified): the RP-LC retention time came to 717 s.

On to `O=C(c1ccc(Cl)cc1)N1CCCCC1CCN1CCOCC1` (stereo unspecified), for which the RP-LC retention time is 637 s. Then `CCOc1ccc(N(C)C(=O)C2CCCN2S(=O)(=O)c2cc(C(=O)OC)n(C)c2)cc1` (stereo unspecified), with 825 s; and `CCc1ccc(CNC(=O)Cn2ccc3ccc(N4CCOCC4)nc32)cc1`, with 969 s. `Cc1ccccc1-c1nnc(CSc2ccc(NC(=O)C3CC3)cc2)o1` came in with an RP-LC retention time of 933 s. `COC(=O)c1cc(S(=O)(=O)N2CCCC2C(=O)Nc2ccc(Br)cc2F)cn1C` (stereo unspecified): the RP-LC retention time is 999 s. Then `CCc1ccc(-c2cc(C)no2)cc1S(=O)(=O)N1CCN(c2ccccn2)CC1`, with 757 s; and `Cc1csc(-c2cc(S(=O)(=O)Nc3cc(Cl)ccc3C)c(C)s2)n1`, with 1110 s; and `COc1ccc(-c2c(C(=O)Nc3ccc(C(C)=O)cc3)nc3ccccn23)cc1`, with 939 s. Then `CSc1ccc(CNC(=O)C2CCCN(c3nc4c(s3)c(C)nn4-c3ccccc3)C2)cc1` (stereo unspecified), with 1150 s; and `CCCS(=O)(=O)N1CC(=O)N(c2cc(Cl)ccc2C)C(C)(C(=O)NC2CCCCC2)C1` (stereo unspecified), with 982 s; and `CC(C)NC(=O)c1cc2nc(N(C)C)n(-c3ccc(F)cc3)c2s1`, with 627 s. Turning to `O=C(Nc1ccccc1)c1n[nH]c2c1CCCCCC2`, the RP-LC retention time came out at 957 s.

For `NC(=O)COC1CCC12CCN(C(=O)C1CCCC1)CC2` (stereo unspecified), the RP-LC retention time came out at 693 s. For `COCCN(CC1(C)CCOCC1)C(=O)NCc1cccc(F)c1` the value was 768 s; for `COc1ccc(OCC2c3cc(OC)c(OC)cc3CCN2C(=O)c2cccc(Cl)c2)cc1` (stereo unspecified), 1120 s.
